Results from publication PMC3459904, “Inhibition of HIV-1 Infection by Human α-Defensin-5, a Natural Antimicrobial Peptide Expressed in the Genital and Intestinal Mucosae” (PLoS ONE, 2012).
Where two headings read alike, the source gives them in different places. Where a SMILES comes first, the peptide text is derived from it. Bridges are numbered along the chain shown (N, C = ends).

Key:
gp120/CD4 = gp120/CD4 (Homo sapiens, UniProt P01730); assay: biochemical
Experimental: (§1) Flat-bottom, 96-well MaxiSorp plates (NUNC, Roskilde, Denmark) were coated with recombinant sCD4 (5 µg/well) or HIV-1BaL gp120 (2 µg/well) in phosphate-buffered saline (PBS) for 18 hrs at 4°C. Bovine serum albumin (BSA) 3% was used for blocking the plates. Antibodies were added in 100 µl PBS+0.05%BSA and incubated for 1 hr at 37°C, after which the plate was washed and incubated for an additional hour at room temperature with the secondary antibody. Peroxidase-conjugated, affinity-purified goat-anti-mouse IgG or goat-anti-human IgG (Dako, Glostrup, Denmark) were used as secondary antibodies. […] The specific signal was calculated by subtracting background values obtained from replicate wells containing all the reagents except the specific ligand for each assay. Binding of mAbs 17b and 48d, directed to CD4-induced epitopes, was performed after preincubation of immobilized gp120 with sCD4 (2 µg/well) in PBS for 20 min at 37°C [65].

[1] = tested on: primary isolate HIV-1J176 in purified CD4+ T lymphocytes
Experimental: Viral stocks were titrated on activated human CD4^+ T cells.
PBMCs were isolated from healthy blood donors by standard Ficoll-HyPaque (Pharmacia, Uppsala, Sweden) density gradient centrifugation from concentrated leukocytes of healthy blood donors and stimulated with 5 µg/ml PHA (Sigma, St. Louis, MO) in complete RPMI medium supplemented with 10% FBS and 50 U/ml recombinant IL-2 (Proleukin; Chiron Corporation, Emeryville, CA) (RPMI-10). After 3 days in culture, CD4^+ T cell population was enriched by negative immunomagnetic selection using Dynabeads M-450 (Invitrogen Carlsbad, CA) coated with monoclonal antibodies to CD8, CD14, CD19 and CD56 (Sigma, St. Louis, MO) according to the manufacturer’s protocol. Infection was carried out by spinoculation for 1.5 hours as previously described [32] with minor modifications. […]
The HIV-1 p24 Ag concentrations in the culture supernatants were determined by enzyme-linked immunosorbent assay (ELISA) at days 4 and 6 post-infection as previously described [68]. […] Bound p24 Ag was then detected using an alkaline phosphatase–conjugated anti-p24 monoclonal antibody (BC 1071-AP; Aalto Bio Reagents) and the AMPAK ELISA amplification system (DAKO A/S, Glostrup, Denmark).

[2] = biological target: recombinant soluble CD4 (sCD4) (Homo sapiens, UniProt P01730); assay: biochemical
Experimental: as §1

X4 HIV-1 envelopes = conditions: read-out: mean IC50, envelope-mediated fusion, PM1 effector cells, NIH-3T3 CD4/CXCR4 target cells, 2 h at 37°C, medium without FCS, β-galactosidase, 3 experiments
HIV-1 envelope = conditions: envelope not stated
SHIV = conditions: macaques; ref [61]; cited from earlier work
Excerpt: Moreover, HD5 may share the mechanism of action of cyanovirin-N, a lectin-like protein that binds to mannose moieties in gp120 and of mAb IgG1b12, with which it competes for the same binding site on CD4 receptor. Both of these virus-targeting entry-inhibitors have been reported to protect macaques from vaginal SHIV ...

[3] = biological target: recombinant HIV-1 gp120 from isolate SF162 (HIV-1 isolate SF162); assay: ELISA; competition: increasing HD5 against mAb IgG1b12 (5 µg/mL) for binding to plastic-immobilised recombinant gp120; PBS + 0.05% BSA, 1 hr at 37°C
[4] = biological target: recombinant human soluble CD4 (human); assay: ELISA; competition: increasing HD5 against anti-CD4 mAb (Leu3a; OKT4) for binding to plastic-immobilised sCD4 (coated at 5 µg/mL); HD5 added before the mAb and kept in the wells
[5] = biological target: recombinant HIV-1 gp120 from isolate BaL (HIV-1 isolate BaL); assay: ELISA; competition: increasing HD5 against the binding of sCD4 and gp120; the text has gp120 on plastic and sCD4 in solution, the legend has sCD4 coated at 5 µg/mL and gp120BaL in solution; HD5 added first and kept in the wells

CC[C@H](C)[C@@H]1NC(=O)[C@H](CCC(=O)O)NC(=O)[C@@H]2CSSC[C@@H]3NC(=O)[C@H](Cc4ccc(O)cc4)NC(=O)[C@@H](NC(=O)[C@@H](NC(=O)[C@H](C)N)[C@@H](C)O)CSSC[C@@H](C(=O)N[C@@H](CCCNC(=N)N)C(=O)O)NC(=O)[C@H](CSSC[C@H](NC(=O)[C@H](CCCNC(=N)N)NC(=O)CNC(=O)[C@H]([C@@H](C)O)NC(=O)[C@H](CCCNC(=N)N)NC3=O)C(=O)N[C@@H](C)C(=O)N[C@@H]([C@@H](C)O)C(=O)N[C@@H](CCCNC(=N)N)C(=O)N[C@@H](CCC(=O)O)C(=O)N[C@@H](CO)C(=O)N[C@@H](CC(C)C)C(=O)N[C@@H](CO)C(=O)NCC(=O)N[C@@H](C(C)C)C(=O)N2)NC(=O)[C@H](CC(C)C)NC(=O)[C@H](CCCNC(=N)N)NC(=O)[C@H](Cc2ccc(O)cc2)NC(=O)[C@H](CC(C)C)NC(=O)[C@H](CCCNC(=N)N)NC(=O)CNC(=O)[C@H](CO)NC1=O [HD5] (H-ATCYCRTGRCATRESLSGVCEISGRLYRLCCR-OH; disulfide 3-31, 5-20, 10-30)
IC50 (gp120/CD4): 900 nM | IC50 ([1]; primary isolate 1J176 in purified CD4+ T lymphocytes, 1 h): 60 nM | IC50 ([1]; read-out: half-maximal inhibitory concentration (IC50), HIV-1 replication, HIV-1J176, no serum (RPMI-0.3-ITS: 0.3% human AB serum, ITS, rIL-2 50 U/ml), virions pre-incubated with HD5 1 h at 37°C, spinoculation 1.5 h, p24 ELISA day 6, mean of 3 experiments in triplicate): 400 nM | IC50 [2]: 1800 nM | IC50 (X4 HIV-1 envelopes): 2770 ± 380 nM | IC50 (HIV-1 envelope; read-out: IC50, fusion with FBS, with FBS (2.5% vol/vol)): 56000 nM | IC50 (HIV-1 envelope; read-out: IC50, fusion without FBS, without FBS): 2300 nM

cyanovirin-N
protection from vaginal SHIV-challenge (SHIV): protect macaques from vaginal SHIV-challenge

ATCYCRTGRCATRESLSGVCEISGRLYRLCCR [human α-defensin-5]
IC50 [3]: 6500 nM | IC50 [4]: 1800 nM | IC50 [5]: 900 nM
